Experiment [1] concerns the target cytochrome bc1 complex (Rattus norvegicus (Rat), UniProt P00159). As to the kind of experiment: Respiratory activity of rat liver mitochondria lacking AOX (cytochrome bc1 complex), oxygen electrode. The format is biochemical. Conditions: 0.9 mg rat liver mitochondria respiring on 5 mM succinate; 25° C.; 1 μM CCCP. Here is the method: (§1) Following on from this work, the inventors set out to test whether or not these compounds also have any effect on the respiratory activity of cytochrome bc1 complex.
(§2) Respiratory activity was measured in a medium containing 0.3M mannitol, 10 mM KCl, 5 mM MgCl2, 1 mM potassium phosphate and 10 mM MOPS (3-(N-morpholino)propanesulfonic acid) buffer pH7.4. Either 0.9 mg of rat liver mitochondria respiring on 5 mM succinate or 0.3 mg potato mitochondria respiring on 1 mM NADH were used. Respiration was measured using a Rank oxygen electrode of 0.4 ml volume at 25° C. in the presence of 1 μM CCCP (Carbonyl cyanide […]). The results were compared with ascochlorin (a known bc1 inhibitor) and azoxystrobin (a commercial fungicide targeted at the bc1 complex).
(§3) Tables 3 and 4 summarise the concentration of inhibitor that was required to reduce the respiration of cytochrome bc1 complex (in the absence of AOX) by 50%. […] The lower the IC50 value the better, since it means that a lower amount of the compound is needed to halve the respiratory activity.

For experiment [2], the target named is cytochrome bc1 complex (Solanum tuberosum (Potato), UniProt P29757). The experiment is described as follows: Respiratory activity of potato mitochondria lacking AOX (cytochrome bc1 complex), oxygen electrode. As to conditions: 0.3 mg potato mitochondria respiring on 1 mM NADH, 25° C., 1 μM CCCP. The format is biochemical. As to the method:
as §1, §2, §3

In experiment [3] the test system is Qo and Qi binding-sites of cytochrome bc1 complex. The experiment is described as follows: Titration using mitochondria in which the alternative oxidase is absent: bc1 binding sites inhibited. In kind it is biochemical. As to conditions: mitochondria without AOX.
Text: as §1

Experiment [4] relates to other quinol oxidases. As to the kind of experiment: Specificity versus other quinol oxidases. The format is biochemical. Conditions: specific for membrane-bound and purified AOX.
In experiment [5] the target is recombinant AOX protein (Trypanosoma brucei brucei, UniProt Q26710). As to the kind of experiment: biochemical. Conditions: purified recombinant AOX protein; oxygen consumption; 1 mM NADH as substrate. As to the method:
Table 1 summarises the concentration of inhibitor required to reduce the respiration of purified recombinant AOX protein by 50%. Respiration was measured as the rate of oxygen consumption in the presence of 1 mM NADH as substrate and the numbers represent the final I50 concentration of the inhibitor.

[6] abbreviates: read-out: IC50 (Potato mitochondria).

Several values for one entry are separate records, joined by “and”; a condition that tells them apart may be missing. Equal entries are not always repeated. Where two headings read alike, the source gives them in different places.

For the molecule `CC(/C=C/[C@@]1(C)[C@H](C)CCC(=O)[C@@H]1C)=C\Cc1c(O)c(Cl)c(C)c(C=O)c1O` [Ascochlorin, ascochlorin], the half-inhibitory concentration (IC50) in experiment [1] turned out to be 187 nM; in experiment [2] (IC50 (Potato mitochondria)), 500 nM. For `C/C(=C\Cc1c(O)c(Cl)c(C)c(C=O)c1O)CC/C=C(\C)[C@@H]1CC(=O)C(C)(C)O1` [Ascofuranone], in experiment [2] (IC50 (Potato mitochondria)), the IC50 is ~30000 nM and 30000 nM. On to `CO/C=C(/C(=O)OC)c1ccccc1Oc1cc(Oc2ccccc2C#N)ncn1` [Azoxystrobin, azoxystrobin], for which the half-inhibitory concentration (IC50) is ~525 nM and 525 nM in experiment [1]; ~1400 nM and 1400 nM in experiment [2] (setting [6]).

For the molecule `CC(C)=CCC/C(C)=C/Cc1c(O)c(Cl)c(C)c(C=O)c1O` [Colletochlorin B], the IC50 in experiment [2] (setting [6]) worked out at 750 nM. Moreover, the “cytochrome bc1 complex binding sites inhibited” value in experiment [3] is “both the Qo and Qi binding-sites”. The “inhibition of other quinol oxidases” value in experiment [4] is “did not appear to inhibit other quinol oxidases”.

In the case of `CCCCCCCCOC(=O)c1cc(O)c(O)c(O)c1` [Octyl Gallate], the IC50 in experiment [5] turned out to be 105 nM.

Source of the values: patent US11565996B2, “Compounds for use as inhibitors of alternative oxidase or cytochrome bc1 complex” (AlternOx Scientific Limited, priority 2012, dated 2023).
